Patent US20210069295A1, “GALECTINS CONTROL MTOR IN RESPONSE TO ENDOMEMBRANE DAMAGE AND PROVIDE A MECHANISM AND TARGET FOR THE TREATMENT OF AUTOPHAGY-RELATED DISEASES” (STC. UNM, priority 2017, published 2021)
Peptide text beside a SMILES is read from it.

System: mTOR
Assay: mTOR activity by immunoblotting of S6K1 (T389) and ULK1 (S757) phosphorylation in HEK293T cells
Type: cell-based
Protocol: (A) Dose-response analysis of mTOR activity in HEK293T cells treated with glycyl-L-phenylalanine 2-naphththylamide (GPN) in full medium for 1 h. mTOR activity was monitored by inununoblotting analysis of S6K1 (T389) and ULK1 (S757) phosphorylation (phosphorylated S6K (T389) and ULK1 (S757) relative to total S6K and ULK1, respectively). (B) Analysis of mTOR activity (as in A) after GPN washout. HEK293T cells were treated with 100 μM GPN for 1 h followed by 1 h washout in full medium. Data, means±SEM (n=3), **p<0.01, ANOVA. (C) Analysis of mTOR activity (as in A) in HEK293T cells treated with increasing doses of silica in full medium for 1 h. (D) HEK293T cells were treated with lysosomal damaging agents (LLOMe, Leu-Leu-OMe) for 1 h in full medium and status of acidified organelles assessed by quantifying LysoTracker Red DND-99 puncta using automated high-content imaging and analysis (HC). None-treated cells were as control (Ctrl). White masks, algorithm defined cell boundaries (primary objects); yellow masks, computer-identified LysoTracker Red puncta (target objects). Data, means±SEM, n≥3 independent experiments (500 primary objects counted per well; ≥5 wells/sample per each experiment), **p<0.01, ANOVA. (E) Analysis of mTOR activity in primary human macrophages treated with GPN. Human peripheral blood monocyte derived macrophages were treated with 100 μM GPN in full medium or starved in EBSS for 1 h, and mTOR activity measured as in A. None-treated cells were as control (Ctrl). (F) Quantification by HC of overlaps between mTOR and LAMP2 (representative images shown in FIG. S1D) in HeLa cells treated with lysosomal damaging agents for 1 h in full medium. Data, means±SEM, n≥3 independent experiments (500 primary objects counted per well; ≥5 wells/sample per each experiment) **p<0.01, ANOVA. (G) Immunofluorescence confocal microscopy visualization of mTOR localization relative to LAMP2-positive lysosomes. […] (H) Analysis of TFEB nuclear translocation in HeLa cells treated with 100 μM GPN in full medium for 1 h, and the nuclear translocation of TFEB was measured by HC (Nuclei, Hoechst 33342, blue pseudocolor; TFEB red fluorescence, Alexa-568). […] White masks, computer algorithm-defined cell boundaries (primary objects); pink masks, computer-identified nuclear TFEB based on the average intensity of Alexa-568 fluorescence. Data, means±SEM, n≥3 independent experiments (500 primary objects counted per well; ≥5 wells/sample per each experiment), **p<0.01, ANOVA. (I) HeLa cells were treated as indicated in full medium for 1 h, and LC3 puncta were quantified by HC. […] Data, means±SEM, n≥3 independent experiments (500 primary objects counted per well; ≥5 wells/sample per each experiment), **p<0.01, ANOVA. […]

NCC(=O)N[C@@H](Cc1ccccc1)C(=O)Nc1ccc2ccccc2c1 [GPN, glycyl-L-phenylalanine 2-naphththylamide] (HELM PEPTIDE1{G.F.[c1ccc2cc(N[*:1])ccc2c1]}$$$$V2.0)
mTOR activity after washout (100 μM GPN for 1 h followed by 1 h washout in full medium): reversed | mTOR activity (phosphorylation of its substrates S6K1 and ULK1) (HEK293T cells, full medium, 1 h): diminished mTOR activity | mTOR activity (S6K1 phosphorylation) in cells expressing constitutively active RagBQ99L (HEK293T stably expressing RagBQ99L, 100 μM GPN 1 h): not the case
